Numbers after ± are expanded uncertainties.
Settings: Crystal; visual observation

Molecule CC1=C(NCc2ccccc2)C(=O)c2ccccc2C1=O [2-(benzylamino)-3-methylnaphthalene-1,4-dione] has a Normal melting temperature of 91.7 ± 2.6 °C.
In the case of CC1=C(NCCc2ccccc2)C(=O)c2ccccc2C1=O [3-(phenethylamino)-2-methylnaphthalene-1,4-dione], the Normal melting temperature is reported as 92.6 ± 1.6 °C.

Source: the NIST ThermoML archive (doi:10.1016/j.jct.2016.08.016)
